Laboratory results taken from paper PMC4805166, “Synthetic Cyclolipopeptides Selective against Microbial, Plant and Animal Cell Targets by Incorporation of D-Amino Acids or Histidine” (PLoS ONE, 2016).
Where “and” joins values, the source holds several entries; their conditions need not be identical. Identical values can stand only once. Like-named read-outs stand apart in the source and are kept apart here. Where a SMILES comes first, the peptide text is derived from it. Side-chain parts run from the residue outwards. [ ]: non-standard residue; d: D form. The star is where a group is joined. Hexanoyl = CCCCCC(=O)*; Butyryl = CCCC(=O)*

Columns and labels:
[1] = tested on: Fusarium oxysporum f. sp. lycopersici FOL 3 race 2; test: MIC, antifungal growth inhibition; assay type: cell-based
Description: (§1) Fusarium oxysporum f. sp. lycopersici FOL 3 race 2 (ATCC 201829, American Type Culture Collection) was used as fungal pathogen. The strain was cultured on potato dextrose agar (PDA) plates (Difco) and microconidia were obtained after growth at 25°C. The concentration of conidia was determined using a hemacytometer and adjusted to 10^4 conidia mL^-1.
(§2) Lyophilized peptides were solubilized in sterile Milli-Q water to a final concentration of 1 mM and filter sterilized through a 0.22-μm pore filter. For minimum inhibitory concentration (MIC) assessment, dilutions of the compounds were made to obtain a stock concentration of […]. For antibacterial activity twenty microlitres of each dilution were mixed in a microtiter plate well with 20 μL of the corresponding suspension of the bacterial indicator, 160 μL of Trypticase Soy Broth (TSB) (BioMèrieux, France) to a total volume of 200 μL. For antifungal activity 20 μL of each stock solution were mixed in a microtiter plate well with 80 μL of the corresponding suspension of the fungal pathogen and 100 μL of double concentrated PDB to a total volume of 200 μL containing 0.003% w/v of choramphenicol.
(§3) Three replicates for each strain, compound and concentration were used. Microbial growth was determined by optical density measurement at 600 nm (Bioscreen C, Labsystem, Helsinki, Finland). For antibacterial activity microplates were incubated at 25°C with 20 sec shaking before hourly absorbance measurement for 48 h. For antifungal activity microplates were incubated at 20°C with 1 min shaking before absorbance measurement that were done every two hours during seven days. The experiment was repeated twice. The MIC was taken as the lowest compound concentration with no growth at the end of the experiment.

[2] = tested on: Erwinia amylovora PMV6076; test: MIC, in vitro growth inhibition; assay type: cell-based; settings: TSB, 25°C, 48 h, OD 600 nm; tested at 3.1, 6.2, 12.5, 25, 50 μM; three replicates, experiment repeated twice; MIC = lowest concentration with no growth
Description: (§4) The following plant pathogenic bacterial strains were used: Erwinia amylovora PMV6076 (Institut National de la Recherche Agronomique, Angers, France), Pseudomonas syringae pv. syringae EPS94 (Institut de Tecnologia Agroalimentària, Universitat de Girona, Spain) and Xanthomonas axonopodis pv. vesicatoria 2133–2 (Instituto Valenciano de Investigaciones Agrarias, Valencia, Spain). All bacteria were stored in Luria Bertani (LB) broth supplemented with glycerol (20%) and maintained at -80°C. Bacteria were scrapped from LB agar after growing for 24–48 h at 25°C. The cell material was suspended in sterile water to obtain a suspension of 10^8 CFU mL^-1.
as §2, §3

[3] = tested on: erythrocyte suspensions of horse blood; settings: horse erythrocytes 5% vol/vol, TRIS buffer pH 7.2, 1 h at 37°C, absorbance 540 nm, relative to melittin 100 μM, ± confidence interval (α = 0.05); for Hemolysis (%) 150 µM: 150 µM peptide; for Hemolysis (%) 250 µM: 250 µM peptide;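 for all read-outs here: Read-out is hemoglobin release into the supernatant, with a buffer-only blank subtracted as the 0% baseline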
Description: Blood was centrifuged at 6000g for 5 min, washed three times with TRIS buffer (10 mM TRIS, 150 mM NaCl, pH 7.2) and diluted.
Compounds were solubilized in TRIS buffer and mixed with horse erythrocytes and the final concentrations tested were 250 and 150 μM. The mixture was incubated under continuous shaking for 1 h at 37°C. Then, the tubes were centrifuged at 3500g for 10 min, 80 μL aliquots of the supernatant transferred to 100-well microplates (Bioscreen), diluted with 80 μL water, and the absorbance measured at 540 nm (Bioscreen). Complete hemolysis was obtained by the addition of melittin at 100 μM (Sigma-Aldrich Corporation, Madrid, Spain). The percentage of hemolysis (H) was calculated using the equation: H = 100×[(Op−Ob)/(Om−Ob)], where Op was the density for a given compound concentration, Ob for the buffer, and Om for the melittin positive control.

[4] = tested on: E. amylovora, P. syringae pv. syringae, X. axonopodis pv. vesicatoria and F. oxysporum; assay type: cell-based
Description: as §4, §1, §2, §3

[5] = tested on: Xanthomonas axonopodis pv. vesicatoria 2133–2; assay type: cell-based; settings: TSB, 25°C, 48 h, OD 600 nm; tested at 3.1, 6.2, 12.5, 25, 50 μM; three replicates, experiment repeated twice; MIC = lowest concentration with no growth
Description: as §4, §2, §3

[6] = tested on: Pseudomonas syringae pv. syringae EPS94; assay type: cell-based; settings: 48 h
Description: as §4, §2, §3

[7] = PDB with 0.003% chloramphenicol, 20°C, seven days, OD 600 nm, tested at 3.1, 6.2, 12.5, 25, 50 μM, three replicates, repeated twice

Row | Molecule | MIC Fo [1] [µM] | MIC Fo [1, 7] [µM] | MIC Ea [2] [µM] | Hemolysis (%) 150 µM [3] [%] | Antimicrobial activity, in words ([4]; authors' overall judgement over the pathogens tested) | MIC Xav [5] | MIC Pss [6] [µM] | Hemolysis (%) 250 µM [3] [%] | MIC against three pathogens ([4]; three of the four pathogens tested) [µM] | MIC Pss ([6]; TSB, 25°C, OD 600 nm, tested at 3.1, 6.2, 12.5, 25, 50 μM, three replicates, experiment repeated twice, MIC = lowest concentration with no growth) [µM]
1 | CC(C)C[C@@H]1NC(=O)[C@H](CCCCN)NC(=O)[C@H](CCCCN)NC(=O)[C@H](CCC(N)=O)NC(=O)[C@H](CC(C)C)NC(=O)[C@H](CCCCN)NC(=O)[C@H](CCCCN)NC(=O)[C@H](Cc2ccccc2)NC(=O)[C@H](CCCCN)NC(=O)[C@H](CCCCN)NC1=O [BPC194] (cyclo(FKKLQKKLKK)) | < 3.1 | <3.1 | 6.2 to 12.5 | 4 ± 1 | high antimicrobial activity | 3.1 to 6.2 µM | 3.1 to 6.2 | – | – | –
2 | CCCCCC(=O)NCCCC[C@@H]1NC(=O)[C@H](CCCCN)NC(=O)[C@H](CCC(N)=O)NC(=O)[C@H](CC(C)C)NC(=O)[C@H](CCCCN)NC(=O)[C@H](CCCCN)NC(=O)[C@H](Cc2c[nH]cn2)NC(=O)[C@H](CCCCN)NC(=O)[C@H](CCCCN)NC(=O)[C@H](CC(C)C)NC1=O [BPC682] (cyclo(HKKLQKK(Hexanoyl)LKK)) | – | 3.1 to 6.2 | 25 to 50 | 20 ± 3 | – | 12.5 to 25 µM | 12.5 to 25 | 27 ± 1 | – | –
3 | CCCCCC(=O)NCCCC[C@H]1NC(=O)[C@H](CCC(N)=O)NC(=O)[C@H](CC(C)C)NC(=O)[C@H](CCCCN)NC(=O)[C@H](CCCCN)NC(=O)[C@H](Cc2ccccc2)NC(=O)[C@H](CCCCN)NC(=O)[C@H](CCCCN)NC(=O)[C@H](CC(C)C)NC(=O)[C@H](CCCCN)NC1=O [BPC684] (cyclo(FKKLQ[dK](Hexanoyl)KLKK)) | – | 6.2 to 12.5 | 25 to 50 | 8 ± 1 | – | 6.2 to 12.5 µM | 12.5 to 25 | – | – | –
4 | CCCC(=O)NCCCC[C@H]1NC(=O)[C@H](CCCCN)NC(=O)[C@H](CCC(N)=O)NC(=O)[C@H](CC(C)C)NC(=O)[C@H](CCCCN)NC(=O)[C@H](CCCCN)NC(=O)[C@H](Cc2ccccc2)NC(=O)[C@H](CCCCN)NC(=O)[C@H](CCCCN)NC(=O)[C@H](CC(C)C)NC1=O [BPC704] (cyclo(FKKLQK[dK](Butyryl)LKK)) | – | 12.5 to 25 | 25 to 50 | 9 ± 1 | – | 6.2 to 12.5 µM | 6.2 to 12.5 | 16 ± 2 | – | –
5 | CCCC(=O)NCCCC[C@@H]1NC(=O)[C@H](CCC(N)=O)NC(=O)[C@H](CC(C)C)NC(=O)[C@H](CCCCN)NC(=O)[C@H](CCCCN)NC(=O)[C@H](Cc2ccccc2)NC(=O)[C@H](CCCCN)NC(=O)[C@H](CCCCN)NC(=O)[C@H](CC(C)C)NC(=O)[C@H](CCCCN)NC1=O [BPC710] (cyclo(FKKLQK(Butyryl)KLKK)) | – | <3.1 | 25 to 50 | 7 ± 1 | – | 3.1 to 6.2 µM | 12.5 to 25 | – | – | –
6 | CCCC(=O)NCCCC[C@@H]1NC(=O)[C@H](CCCCN)NC(=O)[C@H](CC(C)C)NC(=O)[C@H](CCCCN)NC(=O)[C@H](CCCCN)NC(=O)[C@H](CCC(N)=O)NC(=O)[C@H](CC(C)C)NC(=O)[C@H](CCCCN)NC(=O)[C@H](CCCCN)NC(=O)[C@@H](Cc2ccccc2)NC1=O [BPC712, c(KKLKK(CO-C3H7)fKKLQ)] (cyclo(KKLKK(Butyryl)[dF]KKLQ)) | 3.1 to 6.2 | 3.1 to 6.2 | 25 to 50 | 30 ± 4 | – | 3.1 to 12.5 µM and 3.1 to 6.2 µM | 12.5 to 25 | 38 ± 7 | – | –
7 | CCCC(=O)NCCCC[C@@H]1NC(=O)[C@H](CCC(N)=O)NC(=O)[C@H](CC(C)C)NC(=O)[C@H](CCCCN)NC(=O)[C@H](CCCCN)NC(=O)[C@@H](Cc2ccccc2)NC(=O)[C@H](CCCCN)NC(=O)[C@H](CCCCN)NC(=O)[C@H](CC(C)C)NC(=O)[C@H](CCCCN)NC1=O [BPC716, c(K(CO-C3H7)KLKKfKKLQ)] (cyclo(K(Butyryl)KLKK[dF]KKLQ)) | – | 3.1 to 6.2 | 25 to 50 | 2 ± 1 | – | 25 to 50 µM | 12.5 to 25 | 4 ± 0.5 | – | –
8 | CCCC(=O)NCCCC[C@@H]1NC(=O)[C@H](CCCCN)NC(=O)[C@H](CC(C)C)NC(=O)[C@H](CCCCN)NC(=O)[C@H](CCCCN)NC(=O)[C@H](CCC(N)=O)NC(=O)[C@H](CC(C)C)NC(=O)[C@H](CCCCN)NC(=O)[C@H](CCCCN)NC(=O)[C@H](Cc2c[nH]cn2)NC1=O [BPC718, c(KKLKK(CO-C3H7)HKKLQ)] (cyclo(HKKLQKKLKK(Butyryl))) | – | 6.2 to 12.5 | >50 | 3 ± 1 | – | 12.5 to 25 µM | 12.5 to 25 | 4 ± 1 | – | –
9 | CCCC(=O)NCCCC[C@@H]1NC(=O)[C@H](CCCCN)NC(=O)[C@H](CCC(N)=O)NC(=O)[C@H](CC(C)C)NC(=O)[C@H](CCCCN)NC(=O)[C@H](CCCCN)NC(=O)[C@H](Cc2c[nH]cn2)NC(=O)[C@H](CCCCN)NC(=O)[C@H](CCCCN)NC(=O)[C@H](CC(C)C)NC1=O [BPC720] (cyclo(HKKLQKK(Butyryl)LKK)) | – | <3.1 | >50 | 3 ± 1 | – | 12.5 to 25 µM | 12.5 to 25 | 4 ± 1 | – | –
10 | CCCC(=O)NCCCC[C@@H]1NC(=O)[C@H](CCC(N)=O)NC(=O)[C@H](CC(C)C)NC(=O)[C@H](CCCCN)NC(=O)[C@H](CCCCN)NC(=O)[C@H](Cc2c[nH]cn2)NC(=O)[C@H](CCCCN)NC(=O)[C@H](CCCCN)NC(=O)[C@H](CC(C)C)NC(=O)[C@H](CCCCN)NC1=O [BPC722] (cyclo(HKKLQK(Butyryl)KLKK)) | – | 3.1 to 6.2 | >50 | 3 ± 0.2 | – | 25 to 50 µM | >50 | 3 ± 0.1 | – | –
11 | CCCC(=O)N[C@@H](CCCCN)C(=O)N[C@@H](CC(C)C)C(=O)NCCCC[C@H]1NC(=O)[C@H](CCCCN)NC(=O)[C@H](CC(C)C)NC(=O)[C@H](CCCCN)NC(=O)[C@H](CCCCN)NC(=O)[C@H](CCC(N)=O)NC(=O)[C@H](CC(C)C)NC(=O)[C@H](CCCCN)NC(=O)[C@H](CCCCN)NC(=O)[C@H](Cc2ccccc2)NC1=O [BPC724, c(KKLKk(LK-CO-C3H7)FKKLQ)] (cyclo(FKKLQKKLK[dK]([Leu-Lys-Butyryl]))) | – | <3.1 | 25 to 50 | 3 ± 2 | – | 6.2 to 12.5 µM | 12.5 to 25 | 3 ± 0.5 | – | –
12 | CCCC(=O)N[C@@H](CCCCN)C(=O)N[C@@H](CC(C)C)C(=O)NCCCC[C@@H]1NC(=O)[C@H](CCCCN)NC(=O)[C@H](CC(C)C)NC(=O)[C@H](CCCCN)NC(=O)[C@H](CCCCN)NC(=O)[C@H](CCC(N)=O)NC(=O)[C@H](CC(C)C)NC(=O)[C@H](CCCCN)NC(=O)[C@H](CCCCN)NC(=O)[C@@H](Cc2ccccc2)NC1=O [BPC726, c(KKLKK(LK-CO-C3H7)fKKLQ)] (cyclo(KKLKK([Leu-Lys-Butyryl])[dF]KKLQ)) | – | 3.1 to 6.2 | 25 to 50 | 0 ± 1 | – | 6.2 to 12.5 µM | 12.5 to 25 | 4 ± 2 | – | –
13 | c(KKLKK(CO-C8H17)FKKLQ) [BPC594] | – | 6.2 to 12.5 | 25 to 50 | – | – | 3.1 to 6.2 µM | – | – | < 12.5 | 6.2 to 12.5
